Results as given in US9249102B2 (priority 2012, dated 2016).
Like-named read-outs stand apart in the source and are kept apart here.

Experiments:
Haemonchus contortus = assay: Method A: Haemonchus contortus L1 larvae, microtitre plate screen; conditions: 96 h, read-out: motility inhibition
Cooperia oncophora = assay: Method C: Cooperia oncophora L1 larvae in vitro; conditions: 96 h, read-out: inhibition of motility
[1] = system: microfilaria of Dirofilaria immitis; assay: Method F: microfilaria of Dirofilaria immitis, survival at 24 hours
[2] = survival of microfilaria at 24 hours

Work on `O=C(CO[C@H]1CC[C@H](Nc2ccc([N+](=O)[O-])c(C(F)(F)F)c2)CC1)N1CCN(CC2Cc3cc(Cl)ccc3O2)CC1` (stereo partly drawn) [Compound 76, 1-[4-[(5-chloro-2,3-dihydro-1-benzofuran-2-yl)methyl]piperazin-1-yl]-2-[(4-[[4-nitro-3-(trifluoromethyl)phenyl]amino]cyclohexyl)oxy]ethan-1-one] yielded an inhibition at 5 µg/mL (Haemonchus contortus) of no less than 90%, an inhibition at 5 µg/mL (Cooperia oncophora) of no less than 90% and an EC50 [1] of less than 5 µg/mL.
Compound `O=C(COC1CCC(Nc2ccc([N+](=O)[O-])c(C(F)(F)F)c2)CC1)N1CCN(c2ccc3cc(Br)ccc3n2)CC1` (stereo not drawn) [Compound 266, 2-[[4-[(4-nitro-3-trifluoromethyl-phenyl)amino]cyclohexyl]oxy]-1-[4-(6-bromoquinolin-2-yl)piperazin-1-yl]ethan-1-one] has an inhibition at 5 µg/mL (Haemonchus contortus) of no less than 90%, an inhibition at 5 µg/mL (Cooperia oncophora) of no less than 90% and an EC50 [1, 2] of less than 0.1 µg/mL.
`N#Cc1ccc(N[C@H]2CC[C@H](OCC(=O)N3CCN(c4ccc5cc(Br)ccc5n4)CC3)CC2)cc1C(F)(F)F` [Compound 271, 2-[(4-[[4-cyano-3-(trifluoromethyl)phenyl]amino]cyclohexyl)oxy]-1-[4-(6-bromoquinolin-2-yl)piperazin-1-yl]ethan-1-one] gave an inhibition at 5 µg/mL (Haemonchus contortus) of no less than 90%, an inhibition at 5 µg/mL (Cooperia oncophora) of no less than 90% and an EC50 [1, 2] of less than 1 µg/mL.
`O=C(CO[C@H]1CC[C@H](Nc2ccc([N+](=O)[O-])c(C(F)(F)F)c2)CC1)N1CCN(CC2Cc3cc(-c4ccc(F)cc4)ccc3O2)CC1` (stereo partly drawn) [Compound 310, 1-{4-[5-(4-fluoro-phenyl)-2,3-dihydro-benzofuran-2-ylmethyl]-piperazin-1-yl}-2-[4-(4-nitro-3-trifluoromethyl-phenylamino)-cyclohexyloxy]-ethanone] was tested, and the inhibition at 5 µg/mL (Haemonchus contortus) was no less than 90%, the inhibition at 5 µg/mL (Cooperia oncophora) was no less than 90% and the EC50 [1, 2] was less than 0.1 µg/mL.
`O=C(CO[C@H]1CC[C@H](Nc2ccc([N+](=O)[O-])c(C(F)(F)F)c2)CC1)N1CCN(Cc2cc3cc(OC(F)(F)F)ccc3o2)CC1` [Compound 326, 2-[(4-[[4-nitro-3-(trifluoromethyl)phenyl]amino]cyclohexyl)-oxy]1-[4-[5-(trifluoromethoxy)benzofuran-2-ylmethyl]piperazin-1-yl]ethan-1-one] showed an inhibition at 5 µg/mL (Haemonchus contortus) of no less than 90% and an inhibition at 5 µg/mL (Cooperia oncophora) of no less than 90%.
In the case of `CN(c1ccc(C#N)c(C(F)(F)F)c1)[C@H]1CC[C@H](OCC(=O)N2CCN(c3ccc4cc(Br)ccc4n3)CC2)CC1` [Compound 281, 2-[(4-[methyl[4-cyano-3-(trifluoromethyl)phenyl]amino]cyclohexyl)-oxy]-1-[4-(6-bromoquinolin-2-yl)piperazin-1-yl]ethan-1-one], the inhibition at 5 µg/mL (Haemonchus contortus) is reported as no less than 90% and the inhibition at 5 µg/mL (Cooperia oncophora) is reported as no less than 90%.
`O=C(CO[C@H]1CC[C@H](Nc2ccc([N+](=O)[O-])c(C(F)(F)F)c2)CC1)N1CCN(C(=O)c2cc3cc(C(F)(F)F)ccc3o2)CC1` [Compound 183, 2-[(4-[[4-nitro-3-(trifluoromethyl)phenyl]amino]cyclohexan-1-e)oxy]-1-(4-[[5-(trifluoromethyl)-1-benzofuran-2-yl]carbonyl]piperazin-1-yl)ethan-1-one] gave an inhibition at 5 µg/mL (Haemonchus contortus) of no less than 90%, an inhibition at 5 µg/mL (Cooperia oncophora) of no less than 90% and an EC50 [1, 2] of less than 1 µg/mL.
Compound `O=C(CO[C@H]1CC[C@H](Nc2ccc([N+](=O)[O-])c(C(F)(F)F)c2)CC1)N1CCN(c2nc3cc(F)ccc3s2)CC1` [Compound 237, 1-[4-(5-fluoro-1,3-benzothiazol-2-yl)piperazin-1-yl]-2-[[4-[[4-nitro-3-(trifluoromethyl)pheny-1]amino]cyclohexyl]oxy]ethan-1-one] has an inhibition at 5 µg/mL (Haemonchus contortus) of no less than 90%, an inhibition at 5 µg/mL (Cooperia oncophora) of no less than 90% and an EC50 [1, 2] of less than 0.1 µg/mL.
Compound `CC(c1nc2cc(C(F)(F)F)ccc2s1)N1CCN(C(=O)CO[C@H]2CC[C@H](Nc3ccc([N+](=O)[O-])c(C(F)(F)F)c3)CC2)CC1` (stereo partly drawn) [Compound 343, 2-[4-(4-nitro-3-trifluoromethyl-phenylamino)-cyclohexyloxy]-1-{4-[1-(5-trifluoromethyl-benzothiazol-2-yl)-ethyl]-piperazin-1-yl}-ethanone] has an inhibition at 5 µg/mL (Haemonchus contortus) of no less than 90% and an inhibition at 5 µg/mL (Cooperia oncophora) of no less than 90%.
In the case of `O=C(CO[C@H]1CC[C@H](Nc2ccc(S(=O)(=O)C(F)(F)F)cc2)CC1)N1CCN(Cc2nc3cc(C(F)(F)F)ccc3s2)CC1` [Compound 344, 1-[4-[[5-(trifluoromethyl)-1,3-benzothiazol-2-yl]methyl]piperazin-1-yl]-2-[4-[4-(trifluoromethylsulfonyl)anilino]cyclohexoxy]ethanone], the inhibition at 5 µg/mL (Haemonchus contortus) is reported as no less than 90% and the inhibition at 5 µg/mL (Cooperia oncophora) is reported as no less than 90%.
With `O=C(CO[C@H]1CC[C@H](Nc2ccc(S(=O)(=O)C(F)(F)F)cc2)CC1)N1CCN(c2ccc3cc(C(F)(F)F)ccc3n2)CC1` [Compound 331, 1-[4-[6-(trifluoromethyl)-2-quinolyl]piperazin-1-yl]-2-[4-[4-(trifluoromethylsulfonyl)anilino]cyclohexoxy]ethanone] the inhibition at 5 µg/mL (Haemonchus contortus) was no less than 90% and the inhibition at 5 µg/mL (Cooperia oncophora) was no less than 90%.
Work on `O=C(NCCOc1ccc(Nc2ccc([N+](=O)[O-])c(C(F)(F)F)c2)cc1)C(=O)NCC1Cc2cc(F)ccc2O1` (stereo not drawn) [Compound 225, N^1-((5-fluoro-2,3-dihydrobenzofuran-2-yl)methyl)-N^2-(2-(4-(4-nitro-3-(trifluoromethyl)phenylamino)phenoxy)ethyl)oxalamide] yielded an inhibition at 5 µg/mL (Haemonchus contortus) of no less than 90% and an EC50 [1, 2] of less than 1 µg/mL.
In the case of `CN(c1ccc([N+](=O)[O-])c(C(F)(F)F)c1)[C@H]1CC[C@H](OCC(=O)N2CCN(c3ccc4cc(F)ccc4n3)CC2)CC1` [Compound 247, 1-(4-(6-fluoroquinolin-2-yl)piperazin-1-yl)-2-(4-(methyl(4-nitro-3-(trifluoromethyl)phenyl)amino)cyclohexyloxy)ethanone], the inhibition at 5 µg/mL (Haemonchus contortus) is reported as no less than 90% and the EC50 [1, 2] is reported as less than 1 µg/mL.
For `N#Cc1ccc(NC2CCN(C(=O)CCCN3CCN(c4ccc5cc(F)ccc5c4)CC3)CC2)cc1C(F)(F)F` [Compound 18, 4-[(1-[4-[4-(6-fluoronaphthalen-2-yl)piperazin-1-yl]butanoyl]-piperidin-4-yl)amino]-2-(trifluoromethyl)benzonitrile], the inhibition at 5 µg/mL (Haemonchus contortus) was no less than 90% and the EC50 [1, 2] was less than 1 µg/mL.
In the case of `O=C(NCCO[C@H]1CC[C@H](Nc2ccc([N+](=O)[O-])c(C(F)(F)F)c2)CC1)C(=O)NCC1Cc2cc(C(F)(F)F)ccc2O1` (stereo partly drawn) [Compound 219, N^1-[2-[(4-[[4-nitro-3-(trifluoromethyl)phenyl]amino]cyclohexyl)oxy]ethyl]-N^2-[[5-(trifluoromethyl)-2,3-dihydro-1-benzofuran-2-yl]methyl]ethanediamide], the inhibition at 5 µg/mL (Haemonchus contortus) is reported as no less than 90% and the EC50 [1, 2] is reported as less than 1 µg/mL.
With `O=C(CO[C@H]1CC[C@H](Nc2ccc([N+](=O)[O-])c(C(F)(F)F)c2)CC1)N1CCN(c2ccc3cc(F)ccc3c2)CC1` [Compound 17, 1-[4-(6-fluoronaphthalen-2-yl)piperazin-1-yl]-2-[(4-[[4-nitro-3-(trifluoromethyl)phenyl]amino]cyclohexyl)oxy]ethan-1-one] the inhibition at 5 µg/mL (Haemonchus contortus) was no less than 90% and the EC50 [1, 2] was less than 1 µg/mL.
`N#Cc1ccc(NC2CCN(C(=O)CCCN3CCN(c4ccc5cc(F)ccc5n4)CC3)CC2)cc1C(F)(F)F` [Compound 103, 4-[(1-[4-[4-(6-fluoroquinolin-2-yl)piperazin-1-yl]butanoyl]piperidin-4-yl)amino]-2-(trifluoromethyl)benzonitrile] gave an inhibition at 5 µg/mL (Haemonchus contortus) of no less than 90% and an EC50 [1, 2] of less than 5 µg/mL.
For `CN(c1ccc([N+](=O)[O-])c(C(F)(F)F)c1)[C@H]1CC[C@H](OCC(=O)N2CCN(Cc3oc4ccc(C(F)(F)F)cc4c3Cl)CC2)CC1` [Compound 258, 1-(4-[[3-chloro-5-(trifluoromethyl)-1-benzofuran-2-yl]methyl]piperazin-1-yl)-2-[[4-[methyl[4-nitro-3-(trifluoromethyl)phenyl]amino]cyclohexyl]oxy]ethan-1-one], the inhibition at 5 µg/mL (Haemonchus contortus) was no less than 90% and the EC50 [1, 2] was less than 1 µg/mL.
In the case of `O=C(NCCOc1ccc(Nc2ccc([N+](=O)[O-])c(C(F)(F)F)c2)cc1)C(=O)NCC1Cc2cc(C(F)(F)F)ccc2O1` (stereo not drawn) [Compound 227, N^1-(2-(4-(4-nitro-3-(trifluoromethyl)phenylamino)phenoxy)ethyl)-N^2-((5-(trifluoromethyl)-2,3-dihydrobenzofuran-2-yl)methyl)ethanediamide], the inhibition at 5 µg/mL (Haemonchus contortus) is reported as no less than 90% and the EC50 [1, 2] is reported as less than 1 µg/mL.
`O=C(CO[C@H]1CC[C@H](Nc2ccc([N+](=O)[O-])c(C(F)(F)F)c2)CC1)N1CCN(Cc2cc3cc(F)ccc3o2)CC1` [Compound 179, 1-[4-[(5-fluoro-1-benzofuran-2-yl)methyl]piperazin-1-yl]-2-[(4-[[4-nitro-3-(trifluoromethyl)phenyl]amino]cyclohexyl)oxy]ethan-1-one] was tested, and the inhibition at 5 µg/mL (Haemonchus contortus) was no less than 90% and the EC50 [1, 2] was less than 1 µg/mL.
In the case of `CN(c1ccc([N+](=O)[O-])c(C(F)(F)F)c1)[C@H]1CC[C@H](OCC(=O)N2CCN(c3ccc4cc(F)ccc4c3)CC2)CC1` [Compound 248, 1-(4-(6-fluoronaphthalen-2-yl)piperazin-1-yl)-2-(4-(methyl(4-nitro-3-(trifluoromethyl)phenyl)amino)cyclohexyloxy)ethanone], the inhibition at 5 µg/mL (Haemonchus contortus) is reported as no less than 90% and the EC50 [1] is reported as less than 0.1 µg/mL.
With `O=C(CO[C@H]1CC[C@H](Nc2ccc([N+](=O)[O-])c(C(F)(F)F)c2)CC1)N1CCN(c2ccc3cc(F)ccc3c2F)CC1` [Compound 289, 1-[4-(1,6-difluoro-naphthalen-2-yl)-piperazin-1-yl]-2-[4-(4-nitro-3-trifluoromethyl-phenylamino)-cyclohexyloxy]-ethanone] the inhibition at 5 µg/mL (Haemonchus contortus) was no less than 90% and the inhibition at 5 µg/mL (Cooperia oncophora) was no less than 90%.
For `CN(c1ccc(C#N)c(C(F)(F)F)c1)[C@H]1CC[C@H](OCC(=O)N2CCN(c3ccc4cc(Cl)ccc4n3)CC2)CC1` [Compound 282, 2-[(4-[methyl[4-cyano-3-(trifluoromethyl)phenyl]amino]cyclohexyl)-oxy]1-[4-(6-chloroquinolin-2-yl)-piperazin-1-yl]ethan-1-one], the inhibition at 5 µg/mL (Haemonchus contortus) was no less than 90% and the inhibition at 5 µg/mL (Cooperia oncophora) was no less than 90%.
Compound `Cc1cc(N2CCN(C(=O)CO[C@H]3CC[C@H](Nc4ccc([N+](=O)[O-])c(C(F)(F)F)c4)CC3)CC2)nc2ccc(Br)cc12` [Compound 277, 1-[4-(6-bromo-4-methyl-2-quinolyl)piperazin-1-yl]-2-[4-[4-nitro-3-(trifluoromethyl)anilino]cyclohexoxy]ethanone] has an inhibition at 5 µg/mL (Haemonchus contortus) of no less than 90% and an EC50 [1, 2] of less than 5 µg/mL.
